Experimental data reported in patent US6706664B1, “Benzoxazole compounds, process for the preparation thereof and herbicides” (UBE Industries, Ltd., priority 1999, dated 2004).

How the values were obtained:
Parameters in all cases: key: 0: normal development; 1: Less damaged; 2: Slightly damaged; 3: Moderately damaged; 4: Severely damaged; 5: All killed
velvetleaf [1] = assay: Foliar spread test for upland field; assay type: in vivo, Abutilon theophrasti; settings: foliar spray 500 ppm, 3 weeks, rank vs non-treated
Summary of the method: (§1)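 Scoring used a 0–5 scale, where 0 meant normal development and 5 meant all plants killed, assessed 3 weeks after treatment. Plants had been grown about 2 weeks from seed in volcanic ash soil before a uniform spray at 500 ppm containing 0.5% surfactant.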

annual bluegrass [2] = assay: Foliar spread test for upland field; assay type: in vivo, Poa annua; settings: foliar spray 500 ppm, 3 weeks, rank vs non-treated
Summary of the method: as §1

annual bluegrass [3] = assay: Soil treatment test for upland field; assay type: in vivo, Poa annua; settings: 500 g/ha, glass house 25° C., 3 weeks
Summary of the method: (§2)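 Visual 0–5 damage rating recorded 3 weeks after a pre-emergence soil spray of 500 g/ha on seeded Ube alluvial soil, with plants held in a glasshouse near 25° C.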

Large crabgrass [4] = assay: Foliar spread test for upland field; assay type: in vivo, Digitaria adscendens; settings: foliar spray 500 ppm, 3 weeks, rank vs non-treated
Summary of the method: as §1

barnyardgrass [5] = assay: Soil treatment test for upland field; assay type: in vivo, Echinochloa crusgalli; settings: 500 g/ha, glass house 25° C., 3 weeks
Summary of the method: as §2

blackgrass [6] = assay: Foliar spread test for upland field; assay type: in vivo, Alopecurus aegualis; settings: foliar spray 500 ppm, 3 weeks, rank vs non-treated
Source text: (§3) (0: normal development, 1: Less damaged, 2: Slightly damaged, 3: Moderately damaged, 4: Severely damaged, 5: All killed).
(§4) Wagner pots, each having an area of 1/5000 are, were packed with volcanic ash soil and then each seed of corn, soybean, cotton, wheat, solgum, sugar beat, Large crabgrass, barnyardgrass, green foxtail, blackgrass, annual bluegrass, common lambsquartes, livid amaranth, velvetleaf and morning glory was planted, covered with soil and grown in a glass house at an average temperature of […] for about 2 weeks.
(§5) Each wettable powder of the desired compounds (I) shown in Table 1 prepared in accordance with Example 2 was diluted to 500 ppm with water containing a surfactant (0.5%) and then uniformly sprayed on the above respective plants.
(§6) After these plants were controlled in a glass house at an average temperature of 25° C. for 3 weeks, the herbicidal effects thereof were investigated.
(§7) The herbicidal effects were evaluated according to the evaluation method described in the above (1).

Large crabgrass [7] = assay: Soil treatment test for upland field; assay type: in vivo, Digitaria adscendens; settings: 500 g/ha, glass house 25° C., 3 weeks
Summary of the method: as §2

green foxtail [8] = assay: Foliar spread test for upland field; assay type: in vivo, Setaria viridis; settings: foliar spray 500 ppm, 3 weeks, rank vs non-treated
Summary of the method: as §1

green foxtail [9] = assay: Soil treatment test for upland field; assay type: in vivo, Setaria viridis; settings: 500 g/ha, glass house 25° C., 3 weeks
Summary of the method: as §2

barnyardgrass [10] = assay: Foliar spread test for upland field; assay type: in vivo, Echinochloa crusgalli; settings: foliar spray 500 ppm, 3 weeks, rank vs non-treated
Source text: as §3, §4, §5, §6, §7

soybean [11] = assay: Soil treatment test for upland field; assay type: in vivo; settings: 500 g/ha, glass house 25° C., 3 weeks
Summary of the method: as §2

solgum [12] = assay: Soil treatment test for upland field; assay type: in vivo; settings: 500 g/ha, glass house 25° C., 3 weeks
Summary of the method: as §2

sugar beat [13] = assay: Soil treatment test for upland field; assay type: in vivo; settings: 500 g/ha, glass house 25° C., 3 weeks
Summary of the method: as §2

cotton [14] = assay: Soil treatment test for upland field; assay type: in vivo; settings: 500 g/ha, glass house 25° C., 3 weeks
Summary of the method: as §2

wheat [15] = assay: Soil treatment test for upland field; assay type: in vivo; settings: 500 g/ha, glass house 25° C., 3 weeks
Summary of the method: as §2

corn [16] = assay: Soil treatment test for upland field; assay type: in vivo; settings: 500 g/ha, glass house 25° C., 3 weeks
Summary of the method: as §2

blackgrass [17] = assay: Soil treatment test for upland field; assay type: in vivo, Alopecurus aegualis; settings: 500 g/ha, glass house 25° C., 3 weeks
Summary of the method: as §2

morning glory = assay: Foliar spread test for upland field; assay type: in vivo, Ipomoea spps.; settings: foliar spray 500 ppm, 3 weeks, rank vs non-treated
Summary of the method: as §1

common lambsquartes [18] = assay: Soil treatment test for upland field; assay type: in vivo, Chenopodium album; settings: 500 g/ha, glass house 25° C., 3 weeks
Summary of the method: as §2

soybean [19] = assay: Foliar spread test for upland field; assay type: in vivo; settings: foliar spray 500 ppm, 3 weeks, rank vs non-treated
Summary of the method: (§8)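 Wettable powders at 500 ppm, with 0.5% surfactant, were sprayed uniformly over plants raised for roughly 2 weeks in glasshouse pots of volcanic ash soil. Herbicidal damage rated on a 0–5 scale (5 = all killed) after a further 3 weeks at an average 25 °C.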

solgum [20] = assay: Foliar spread test for upland field; assay type: in vivo; settings: foliar spray 500 ppm, 3 weeks, rank vs non-treated
Summary of the method: as §8

sugar beat [21] = assay: Foliar spread test for upland field; assay type: in vivo; settings: foliar spray 500 ppm, 3 weeks, rank vs non-treated
Summary of the method: as §8

cotton [22] = assay: Foliar spread test for upland field; assay type: in vivo; settings: foliar spray 500 ppm, 3 weeks, rank vs non-treated
Summary of the method: as §8

wheat [23] = assay: Foliar spread test for upland field; assay type: in vivo; settings: foliar spray 500 ppm, 3 weeks, rank vs non-treated
Summary of the method: as §8

corn [24] = assay: Foliar spread test for upland field; assay type: in vivo; settings: foliar spray 500 ppm, 3 weeks, rank vs non-treated
Summary of the method: as §8

common lambsquartes [25] = assay: Foliar spread test for upland field; assay type: in vivo, Chenopodium album; settings: foliar spray 500 ppm, 3 weeks, rank vs non-treated
Summary of the method: as §1

livid amaranth [26] = assay: Foliar spread test for upland field; assay type: in vivo, Amaranthus lividus; settings: foliar spray 500 ppm, 3 weeks, rank vs non-treated
Summary of the method: as §1

livid amaranth [27] = assay: Soil treatment test for upland field; assay type: in vivo, Amaranthus lividus; settings: 500 g/ha, glass house 25° C., 3 weeks
Summary of the method: as §2

velvetleaf [28] = assay: Soil treatment test for upland field; assay type: in vivo, Abutilon theophrasti; settings: 500 g/ha, glass house 25° C., 3 weeks
Summary of the method: as §2

Compound | Effects Velvetleaf (velvetleaf [1]) | Effects Annual bluegrass (annual bluegrass [2]) | Effects Annual bluegrass (annual bluegrass [3]) | Effects Large crabgrass (Large crabgrass [4]) | Effects Barnyardgrass (barnyardgrass [5]) | Effects Blackgrass (blackgrass [6]) | Effects Large crabgrass (Large crabgrass [7]) | Effects Green foxtail (green foxtail [8]) | Effects Green foxtail (green foxtail [9]) | Effects Barnyardgrass (barnyardgrass [10]) | Effects Soybean (soybean [11]) | Effects Solgum (solgum [12]) | Effects Sugar beat (sugar beat [13]) | Effects Cotton (cotton [14]) | Effects Wheat (wheat [15]) | Effects Corn (corn [16]) | Effects Blackgrass (blackgrass [17]) | Effects Morning glory (morning glory) | Effects Common lambsquarters (common lambsquartes [18]) | Effects Soybean (soybean [19]) | other results
CCC(Oc1ccc(F)c(C(F)(F)F)c1)c1nc2ccc(C(F)(F)F)cc2o1 (stereo not shown) [Compound 93] | 2 | 1 | 5 | 3 | 4 | 1 | 5 | 3 | 5 | 2 | 2 | 1 | 5 | 1 | 0 | 1 | 3 | 3 | 3 | 4 | Effects Solgum (solgum [20]): 1; Effects Sugar beat (sugar beat [21]): 4; Effects Cotton (cotton [22]): 3; Effects Wheat (wheat [23]): 2; Effects Corn (corn [24]): 2; Effects Common lambsquarters (common lambsquartes [25]): 4; Effects Livid amaranth (livid amaranth [26]): 4; Effects Livid amaranth (livid amaranth [27]): 5; Effects Velvetleaf (velvetleaf [28]): 2
CCCC(Oc1ccc(F)c(C(F)(F)F)c1)c1nc2ccc(C(F)(F)F)cc2o1 (stereo not shown) [Compound 101] | 3 | 1 | 5 | 2 | 3 | 1 | 5 | 2 | 5 | 1 | 0 | 1 | 2 | 0 | 0 | 0 | 3 | 3 | 4 | 3 | Effects Solgum (solgum [20]): 1; Effects Sugar beat (sugar beat [21]): 2; Effects Cotton (cotton [22]): 2; Effects Wheat (wheat [23]): 1; Effects Corn (corn [24]): 1; Effects Common lambsquarters (common lambsquartes [25]): 4; Effects Livid amaranth (livid amaranth [26]): 4; Effects Livid amaranth (livid amaranth [27]): 5; Effects Velvetleaf (velvetleaf [28]): 2
CCC(Oc1ccc(F)c(C(F)(F)F)c1)c1nc2cc(I)ccc2o1 (stereo not shown) [Compound 171] | 3 | 3 | 5 | 3 | 2 | 1 | 5 | 5 | 5 | 1 | 0 | 1 | 5 | 0 | 1 | 0 | 1 | 5 | 2 | 3 | Effects Solgum (solgum [20]): 2; Effects Sugar beat (sugar beat [21]): 3; Effects Cotton (cotton [22]): 4; Effects Wheat (wheat [23]): 2; Effects Corn (corn [24]): 2; Effects Common lambsquarters (common lambsquartes [25]): 4; Effects Livid amaranth (livid amaranth [26]): 5; Effects Livid amaranth (livid amaranth [27]): 5
CCC(Oc1cccc(OC(F)(F)F)c1)c1nc2cc(Cl)ccc2o1 (stereo not shown) [Compound 447] | 2 | 2 | 5 | 3 | 4 | 2 | 5 | 2 | 5 | 1 | 0 | 1 | 5 | 0 | 1 | 2 | 5 | 5 | 3 | 5 | Effects Solgum (solgum [20]): 3; Effects Sugar beat (sugar beat [21]): 5; Effects Cotton (cotton [22]): 4; Effects Wheat (wheat [23]): 2; Effects Corn (corn [24]): 3; Effects Common lambsquarters (common lambsquartes [25]): 5; Effects Livid amaranth (livid amaranth [26]): 5; Effects Livid amaranth (livid amaranth [27]): 5; Effects Velvetleaf (velvetleaf [28]): 2
